Results reported in patent US4971983A, “Substituted 2-aminobenzothiazoles and derivatives useful as cerebrovascular agents” (Warner-Lambert Company, priority 1989, dated 1990).
Read-outs that look alike come from different tables or passages of the source.

What was measured:
MCAO rats = test: Combined Middle Cerebral and Ipsilateral Common Carotid Occlusion in the Rat (MCAO): collateral zone and hemispheric infarct; format: in vivo, Adult male Fisher (F-344) rats; conditions: for response vs control in vivo at 3 mg/kg: 3 mg/kg IP; for response vs control in vivo at 15 mg/kg: 15 mg/kg IP
Description: Occlusion of the proximal part of the middle cerebral artery (MCA) is a common cause of stroke in man and can be accomplished surgically in experimental animals. […] We have combined distal MCA occlusion with ipsilateral common carotid ligation in an attempt to produce reproducible,focal cerebral ischemic infarcts.
The skin on the ventral side of the neck and the left temporal-parietal region was shaved. An incision was made in the neck and the left common carotid artery was doubly ligated and cut between the sutures. The incision was closed with 4-0 silk. Another incision was then made behind the left eye and the skin was held back with retractors. The exposed temporalis muscle was electrocauterized (Jarit Bipolar Coagulator) and partially removed. The upper part of the lower jaw bone was also removed. Deep surgery was performed with the aid of a Zeiss OPMI 99 surgical microscope. A 1 to 2-mm diameter craniotomy was made about 1 mm anterior to where the rostral end of the zygoma fuses to the squamosal bone. To prevent the drill from going through the dura, the burr hole was not drilled completely through the skull. Bone remaining after drilling was removed with forceps. The dura was pierced and reflected with a fine probe.
At this point the rat was injected with 0.3 ml of 2% Evans blue dye in saline via the tail vein. Evans blue binds to serum albumin and will not pass the blood-brain barrier unless damage has occurred, such as damage induced by ischemia. A small hook was then positioned under the MCA and the MCA was lifted away from the cortex. A jeweler-type bipolar forceps was introduced and the MCA was electrocauterized and separated. Gelfoam was put over the craniotomy and the wound was closed with 4-0 silk. The rats were then taken off the halothane and were allowed to wake up. Total anesthesia time was typically 30 minutes.
On Day 2 following MCA occlusion, the rats were anesthetized with ketamine (150 mg/kg, IP) and sacrificed. Cerebral tissue fixation was initiated by perfusion of 10% neutralized, buffered formalin for five minutes. Brains were removed and stored in the fixative until analysis.
For evaluation of the extent of cerebral ischemic injury, the brains were cut coronally in three different locations. The first section was at the level where the MCA was ligated. The other two sections were 2 mm anterior and 2 mm posterior to the first. Using an ausJena Citoval microscope with a drawing tube and an Apple II plus computer with a Houston Instrument digitizing pad, a software routine to measure the area of the ischemic damage as indicated by the extent of Evans blue tissue extravasation was employed. The software package was purchased from R&M Biometrics (Nashville, Tenn.) and is titled Bioquant II. From the lesion areas (mm^2) obtained from the Bioquant II program, we estimated the hemispheric extent (mm^3) of ischemic damage between the anterior and posterior sections by computing and adding the volume of two truncated cones.
The Bioquant II image analysis system was used to quantitate ischemic injury as it was identified by Evans blue extravasation.

rats = test: Anesthesia in rats after dosing (impaired consciousness, lack of righting reflex; duration); format: in vivo, Adult male Fisher (F-344) rats; conditions: time from administration to regaining consciousness
Description: The duration of anesthesia is that time elapsed between administration of the test substance and the test animal regaining consciousness.

[1] = 10 mg/kg IP, 30 min and 24 h after occlusion, historical controls, read-out: Collateral Zone Infarct (% of Control)
[2] = 10 mg/kg IP, 30 min and 24 h after occlusion, historical controls, read-out: Hemispheric Infarct (% of Control)
[3] = 30 mg/kg IP, 30 min and 24 h after occlusion, historical controls, read-out: Collateral Zone Infarct (% of Control)
[4] = 30 mg/kg IP, 30 min and 24 h after occlusion, historical controls, read-out: Hemispheric Infarct (% of Control)
[5] = 30 min and 24 h after occlusion, historical controls, read-out: Collateral Zone Infarct (% of Control)
[6] = 30 min and 24 h after occlusion, historical controls, read-out: Hemispheric Infarct (% of Control)
[7] = ip, read-out: Collateral Zone Infarct (% of Control)
[8] = ip, read-out: Hemispheric Infarct (% of Control)

Nc1nc2cc(C(F)(F)F)ccc2s1 [Compound 19, 2-amino-5-trifluoromethylbenzothiazole]
response vs control in vivo at 10 mg/kg (MCAO rats; [1]): 48% | response vs control in vivo at 10 mg/kg (MCAO rats; [2]): 63% | response vs control in vivo at 30 mg/kg (MCAO rats; [3]): 53% | response vs control in vivo at 30 mg/kg (MCAO rats; [4]): 79%

COc1cccc2sc(N)nc12 [Compound 13, 2-amino-4-methoxybenzothiazole]
response vs control in vivo at 3 mg/kg (MCAO rats; [5]): 85% | response vs control in vivo at 3 mg/kg (MCAO rats; [6]): 90% | response vs control in vivo at 10 mg/kg (MCAO rats; [1]): 115% | response vs control in vivo at 10 mg/kg (MCAO rats; [2]): 121% | Anesthesia (duration) (rats; 10 mg/kg IP): > 5 h

CSc1ccc2nc(N)sc2c1 [Compound 2, 2-amino-6-methylthiobenzothiazole]
response vs control in vivo at 10 mg/kg (MCAO rats; [1]): 72% | response vs control in vivo at 10 mg/kg (MCAO rats; [2]): 88% | response vs control in vivo at 30 mg/kg (MCAO rats; [3]): 100% | response vs control in vivo at 30 mg/kg (MCAO rats; [4]): 106%

Cc1cccc2sc(N)nc12 [Compound 14, 2-amino-4-methylbenzothiazole]
response vs control in vivo at 10 mg/kg (MCAO rats; [1]): 69% | response vs control in vivo at 10 mg/kg (MCAO rats; [2]): 72% | response vs control in vivo at 30 mg/kg (MCAO rats; [3]): 40% | response vs control in vivo at 30 mg/kg (MCAO rats; [4]): 54%

Nc1nc2c(F)cc(F)cc2s1 [Compound 17, 2-amino-4,6-difluorobenzothiazole]
response vs control in vivo at 10 mg/kg (MCAO rats; [1]): 137% | response vs control in vivo at 10 mg/kg (MCAO rats; [2]): 139% | response vs control in vivo at 30 mg/kg (MCAO rats; [3]): 105% | response vs control in vivo at 30 mg/kg (MCAO rats; [4]): 115%

c1ccc(CNc2nc3ccccc3s2)cc1 [Compound 22, N-benzyl-2-benzothiazolamine]
response vs control in vivo at 10 mg/kg (MCAO rats; [1]): 56% | response vs control in vivo at 10 mg/kg (MCAO rats; [2]): 76% | response vs control in vivo at 30 mg/kg (MCAO rats; [3]): 98% | response vs control in vivo at 30 mg/kg (MCAO rats; [4]): 89%

Nc1nc2c(C(F)(F)F)cccc2s1 [Compound 16, 2-amino-4-trifluoromethylbenzothiazole]
response vs control in vivo at 10 mg/kg (MCAO rats; [1]): 63% | response vs control in vivo at 10 mg/kg (MCAO rats; [2]): 99% | response vs control in vivo at 30 mg/kg (MCAO rats; [3]): 15% | response vs control in vivo at 30 mg/kg (MCAO rats; [4]): 61%

CCOc1ccc2nc(N)sc2c1 [Compound 6, 2-amino-6-ethoxybenzothiazole]
response vs control in vivo at 10 mg/kg (MCAO rats; [1]): 94% | response vs control in vivo at 10 mg/kg (MCAO rats; [2]): 115% | response vs control in vivo at 30 mg/kg (MCAO rats; [3]): 16% | response vs control in vivo at 30 mg/kg (MCAO rats; [4]): 59%

CS(=O)(=O)c1ccc2nc(N)sc2c1 [Compound 4, 2-amino-6-methylsulphonylbenzothiazole]
response vs control in vivo at 10 mg/kg (MCAO rats; [1]): 77% | response vs control in vivo at 10 mg/kg (MCAO rats; [2]): 83% | response vs control in vivo at 30 mg/kg (MCAO rats; [3]): 58% | response vs control in vivo at 30 mg/kg (MCAO rats; [4]): 86%

Cc1cc(C)c2nc(N)sc2c1 [Compound 12, 2-amino-4,6-dimethylbenzothiazole]
response vs control in vivo at 10 mg/kg (MCAO rats; [1]): 91% | response vs control in vivo at 10 mg/kg (MCAO rats; [2]): 79% | response vs control in vivo at 30 mg/kg (MCAO rats; [3]): 68% | response vs control in vivo at 30 mg/kg (MCAO rats; [4]): 76%

CCNc1nc2ccccc2s1 [Compound 21, 2-ethylaminobenzothiazole]
response vs control in vivo at 10 mg/kg (MCAO rats; [1]): 62% | response vs control in vivo at 10 mg/kg (MCAO rats; [2]): 71% | response vs control in vivo at 30 mg/kg (MCAO rats; [3]): 116% | response vs control in vivo at 30 mg/kg (MCAO rats; [4]): 89%

Nc1nc2ccc(Br)cc2s1 [Compound 7, 2-amino-6-bromobenzothiazole]
response vs control in vivo at 10 mg/kg (MCAO rats; [1]): 69% | response vs control in vivo at 10 mg/kg (MCAO rats; [2]): 88% | response vs control in vivo at 30 mg/kg (MCAO rats; [3]): 59% | response vs control in vivo at 30 mg/kg (MCAO rats; [4]): 68% | Anesthesia (duration) (rats; 30 mg/kg IP): > 5 h

Nc1nc2ccc([N+](=O)[O-])cc2s1 [Compound 8, 2-amino-6-nitrobenzothiazole]
response vs control in vivo at 10 mg/kg (MCAO rats; [1]): 92% | response vs control in vivo at 10 mg/kg (MCAO rats; [2]): 93% | response vs control in vivo at 30 mg/kg (MCAO rats; [3]): 24% | response vs control in vivo at 30 mg/kg (MCAO rats; [4]): 62% | Anesthesia (duration) (rats; 30 mg/kg IP): 4 h

Nc1nc2c(ccc3ccccc32)s1 [Compound 20, 2-amino-naptho[1,2-d]thiazole]
response vs control in vivo at 10 mg/kg (MCAO rats; [1]): 63% | response vs control in vivo at 10 mg/kg (MCAO rats; [2]): 84% | response vs control in vivo at 30 mg/kg (MCAO rats; [3]): 81% | response vs control in vivo at 30 mg/kg (MCAO rats; [4]): 92%

Nc1nc2ccc(OC(F)(F)F)cc2s1 [Compound 9, 2-amino-6-trifluoromethoxybenzothiazole]
response vs control in vivo at 3 mg/kg (MCAO rats; [5]): 117% | response vs control in vivo at 3 mg/kg (MCAO rats; [6]): 99% | response vs control in vivo at 10 mg/kg (MCAO rats; [1]): 43% | response vs control in vivo at 10 mg/kg (MCAO rats; [2]): 66% | response vs control in vivo at 15 mg/kg (MCAO rats; [5]): 42% | response vs control in vivo at 15 mg/kg (MCAO rats; [6]): 82% | response vs control in vivo at 30 mg/kg (MCAO rats; [3]): 0% | response vs control in vivo at 30 mg/kg (MCAO rats; [4]): 44% | Anesthesia (duration) (rats; 30 mg/kg IP): 1 to 2 h

COc1ccc2sc(N)nc2c1 [Compound 18, 2-amino-5-methoxybenzothiazole]
response vs control in vivo at 10 mg/kg (MCAO rats; [7]): 124% | response vs control in vivo at 30 mg/kg (MCAO rats; [7]): 54% | response vs control in vivo at 10 mg/kg (MCAO rats; [8]): 117% | response vs control in vivo at 30 mg/kg (MCAO rats; [8]): 82%

CN1CCCC1CCNc1nc2ccccc2s1 (centres unmarked) [Compound 23, 2-[[2-(1-methyl-2-pyrrolidinyl)ethyl]amino]-benzothiazole]
response vs control in vivo at 10 mg/kg (MCAO rats; [1]): 66% | response vs control in vivo at 10 mg/kg (MCAO rats; [2]): 84% | response vs control in vivo at 30 mg/kg (MCAO rats; [3]): 18% | response vs control in vivo at 30 mg/kg (MCAO rats; [4]): 72%

Nc1nc2ccc(C(F)(F)F)cc2s1 [Compound 10, 2-amino-6-trifluoromethylbenzothiazole]
response vs control in vivo at 3 mg/kg (MCAO rats; [5]): 156% | response vs control in vivo at 3 mg/kg (MCAO rats; [6]): 131% | response vs control in vivo at 10 mg/kg (MCAO rats; [1]): 51% | response vs control in vivo at 10 mg/kg (MCAO rats; [2]): 53%
